In article PMC10053807, “Natural Lipid Extracts as an Artificial Membrane for Drug Permeability Assay: In Vitro and In Silico Characterization” (Pharmaceutics, 2023):

Assay: PAMPA permeability, brain polar lipid extract (BPLE) membrane
Conditions: Brain Polar lipid extract membrane, n=3

Compound | Mean logPe
CCCCOc1cc(C(=O)NCCN(CC)CC)c2ccccc2n1 [dibucaine] | -4.19
CC(C)C(=O)Nc1ccc([N+](=O)[O-])c(C(F)(F)F)c1 [flutamide] | -4.24
O=C1NC(=O)C(c2ccccc2)(c2ccccc2)N1 [phenytoin] | -4.57
Cc1c(OCC(F)(F)F)ccnc1C[S+]([O-])c1nc2ccccc2[nH]1 (stereo not shown) [lansoprazole] | -4.58
COc1ccc2c(c1)N(C[C@H](C)CN(C)C)c1ccccc1S2 [levomepromazine] | -4.83
CC(C)Cc1ccc(C(C)C(=O)O)cc1 (stereo not shown) [ibuprofen] | -5.12
O=C1CN=C(c2ccccc2)c2cc([N+](=O)[O-])ccc2N1 [nitrazepam] | -4.67

Same assay, conditions: pig, PAMPA, pH 7.4

Compound | Papp at 4 h, 100 μM [×10⁻⁶ cm/s]
CCCCOc1cc(C(=O)NCCN(CC)CC)c2ccccc2n1 [dibucaine] | 65
CC(C)C(=O)Nc1ccc([N+](=O)[O-])c(C(F)(F)F)c1 [flutamide] | 58.1
O=C1NC(=O)C(c2ccccc2)(c2ccccc2)N1 [phenytoin] | 27.2
Cc1c(OCC(F)(F)F)ccnc1C[S+]([O-])c1nc2ccccc2[nH]1 (stereo not shown) [lansoprazole] | 26.6
COc1ccc2c(c1)N(C[C@H](C)CN(C)C)c1ccccc1S2 [levomepromazine] | 15.1
CC(C)Cc1ccc(C(C)C(=O)O)cc1 (stereo not shown) [ibuprofen] | 7.64
O=C1CN=C(c2ccccc2)c2cc([N+](=O)[O-])ccc2N1 [nitrazepam] | 21.5
CC(=O)CC(c1ccccc1)c1c(O)c2ccccc2oc1=O (stereo not shown) [warfarin] | 0.47

Same assay, conditions: pig, PAMPA, pH 7.4, Mean logPe, Brain Polar lipid extract membrane, n=3

Compound | Papp at 4 h, 100 μM [×10⁻⁶ cm/s]
CC(=O)CC(c1ccccc1)c1c(O)c2ccccc2oc1=O (stereo not shown) [warfarin] | 1.41

Assay: PAMPA permeability, brain total lipid extract (BTLE) membrane
Conditions: Brain total lipid extract membrane, n=3

Compound | Mean logPe
CCCCOc1cc(C(=O)NCCN(CC)CC)c2ccccc2n1 [dibucaine] | -4.40
CC(C)C(=O)Nc1ccc([N+](=O)[O-])c(C(F)(F)F)c1 [flutamide] | -4.45
O=C1NC(=O)C(c2ccccc2)(c2ccccc2)N1 [phenytoin] | -4.46
Cc1c(OCC(F)(F)F)ccnc1C[S+]([O-])c1nc2ccccc2[nH]1 (stereo not shown) [lansoprazole] | -4.54
COc1ccc2c(c1)N(C[C@H](C)CN(C)C)c1ccccc1S2 [levomepromazine] | -4.89
CC(C)Cc1ccc(C(C)C(=O)O)cc1 (stereo not shown) [ibuprofen] | -5.05
O=C1CN=C(c2ccccc2)c2cc([N+](=O)[O-])ccc2N1 [nitrazepam] | -4.47
CC(=O)CC(c1ccccc1)c1c(O)c2ccccc2oc1=O (stereo not shown) [warfarin] | -5.62

Same assay, conditions: Brain total lipid extract membrane, n=3; * = not detected at acceptor side, value calculated from limit of detection

Compound | Mean Pe
CCCCOc1cc(C(=O)NCCN(CC)CC)c2ccccc2n1 [dibucaine] | 40.24 10-6 cm/s

Same assay, conditions: pig, PAMPA, pH 7.4

Compound | Papp at 4 h, 100 μM [×10⁻⁶ cm/s]
CC(C)C(=O)Nc1ccc([N+](=O)[O-])c(C(F)(F)F)c1 [flutamide] | 35.5
O=C1NC(=O)C(c2ccccc2)(c2ccccc2)N1 [phenytoin] | 35.3
Cc1c(OCC(F)(F)F)ccnc1C[S+]([O-])c1nc2ccccc2[nH]1 (stereo not shown) [lansoprazole] | 28.6
COc1ccc2c(c1)N(C[C@H](C)CN(C)C)c1ccccc1S2 [levomepromazine] | 15.8
CC(C)Cc1ccc(C(C)C(=O)O)cc1 (stereo not shown) [ibuprofen] | 8.97
O=C1CN=C(c2ccccc2)c2cc([N+](=O)[O-])ccc2N1 [nitrazepam] | 34.1
CC(=O)CC(c1ccccc1)c1c(O)c2ccccc2oc1=O (stereo not shown) [warfarin] | 2.43

Assay: PAMPA permeability, comparison across the six natural lipid extract membranes
Conditions: BTLE vs BPLE

Compound | total-polar permeability comparison, brain extracts
CC(C)C(=O)Nc1ccc([N+](=O)[O-])c(C(F)(F)F)c1 [flutamide] | higher in the brain polar extract

Same assay, conditions: LTLE vs LPLE

Compound | total-polar permeability comparison, liver extracts
CC(C)C(=O)Nc1ccc([N+](=O)[O-])c(C(F)(F)F)c1 [flutamide] | higher in the liver total extract

Same assay, conditions: compounds near the abscissa of the PCA biplot, Figure 12

Compound | dependence of permeability on the lipid extract (PCA biplot)
O=C1NC(=O)C(c2ccccc2)(c2ccccc2)N1 [phenytoin] | independent of the investigated lipids
Cc1c(OCC(F)(F)F)ccnc1C[S+]([O-])c1nc2ccccc2[nH]1 (stereo not shown) [lansoprazole] | independent of the investigated lipids
CC(C)Cc1ccc(C(C)C(=O)O)cc1 (stereo not shown) [ibuprofen] | independent of the investigated lipids

Same assay, conditions: heart, liver and brain extracts, Figure 10A–C

Compound | total-polar permeability comparison
CCCCOc1cc(C(=O)NCCN(CC)CC)c2ccccc2n1 [dibucaine] | higher permeability in polar lipids
COc1ccc2c(c1)N(C[C@H](C)CN(C)C)c1ccccc1S2 [levomepromazine] | heart total-liver polar
O=C1CN=C(c2ccccc2)c2cc([N+](=O)[O-])ccc2N1 [nitrazepam] | higher permeability in total lipids

Assay: PAMPA permeability, heart polar lipid extract (HPLE) membrane
Conditions: Heart Polar lipid extract membrane, n=3

Compound | Mean logPe
CCCCOc1cc(C(=O)NCCN(CC)CC)c2ccccc2n1 [dibucaine] | -4.31
CC(C)C(=O)Nc1ccc([N+](=O)[O-])c(C(F)(F)F)c1 [flutamide] | -4.30
O=C1NC(=O)C(c2ccccc2)(c2ccccc2)N1 [phenytoin] | -4.42
Cc1c(OCC(F)(F)F)ccnc1C[S+]([O-])c1nc2ccccc2[nH]1 (stereo not shown) [lansoprazole] | -4.74
COc1ccc2c(c1)N(C[C@H](C)CN(C)C)c1ccccc1S2 [levomepromazine] | -5.20
CC(C)Cc1ccc(C(C)C(=O)O)cc1 (stereo not shown) [ibuprofen] | -4.62
O=C1CN=C(c2ccccc2)c2cc([N+](=O)[O-])ccc2N1 [nitrazepam] | -4.54
CC(=O)CC(c1ccccc1)c1c(O)c2ccccc2oc1=O (stereo not shown) [warfarin] | -5.50

Same assay, conditions: bovine, PAMPA, pH 7.4

Compound | Papp at 4 h, 100 μM [×10⁻⁶ cm/s]
CCCCOc1cc(C(=O)NCCN(CC)CC)c2ccccc2n1 [dibucaine] | 48.6
CC(C)C(=O)Nc1ccc([N+](=O)[O-])c(C(F)(F)F)c1 [flutamide] | 50.3
O=C1NC(=O)C(c2ccccc2)(c2ccccc2)N1 [phenytoin] | 38.4
Cc1c(OCC(F)(F)F)ccnc1C[S+]([O-])c1nc2ccccc2[nH]1 (stereo not shown) [lansoprazole] | 18
COc1ccc2c(c1)N(C[C@H](C)CN(C)C)c1ccccc1S2 [levomepromazine] | 6.57
CC(C)Cc1ccc(C(C)C(=O)O)cc1 (stereo not shown) [ibuprofen] | 24.2
CC(=O)CC(c1ccccc1)c1c(O)c2ccccc2oc1=O (stereo not shown) [warfarin] | 3.25

Assay: PAMPA permeability, heart total lipid extract (HTLE) membrane
Conditions: Heart total lipid extract membrane, n=3

Compound | Mean logPe
CCCCOc1cc(C(=O)NCCN(CC)CC)c2ccccc2n1 [dibucaine] | -4.44
CC(C)C(=O)Nc1ccc([N+](=O)[O-])c(C(F)(F)F)c1 [flutamide] | -4.40
O=C1NC(=O)C(c2ccccc2)(c2ccccc2)N1 [phenytoin] | -4.84
Cc1c(OCC(F)(F)F)ccnc1C[S+]([O-])c1nc2ccccc2[nH]1 (stereo not shown) [lansoprazole] | -4.67
COc1ccc2c(c1)N(C[C@H](C)CN(C)C)c1ccccc1S2 [levomepromazine] | -4.90
CC(C)Cc1ccc(C(C)C(=O)O)cc1 (stereo not shown) [ibuprofen] | -4.76
O=C1CN=C(c2ccccc2)c2cc([N+](=O)[O-])ccc2N1 [nitrazepam] | -4.46

Same assay, conditions: bovine, PAMPA, pH 7.4, Mean Pe, Heart total lipid extract membrane, n=3; * = not detected at acceptor side, value calculated from limit of detection

Compound | Papp at 4 h, 100 μM [×10⁻⁶ cm/s]
CCCCOc1cc(C(=O)NCCN(CC)CC)c2ccccc2n1 [dibucaine] | 37.3
CC(C)C(=O)Nc1ccc([N+](=O)[O-])c(C(F)(F)F)c1 [flutamide] | 41.8
O=C1NC(=O)C(c2ccccc2)(c2ccccc2)N1 [phenytoin] | 14.7
Cc1c(OCC(F)(F)F)ccnc1C[S+]([O-])c1nc2ccccc2[nH]1 (stereo not shown) [lansoprazole] | 21.9
COc1ccc2c(c1)N(C[C@H](C)CN(C)C)c1ccccc1S2 [levomepromazine] | 13.2
CC(C)Cc1ccc(C(C)C(=O)O)cc1 (stereo not shown) [ibuprofen] | 17.3
CC(=O)CC(c1ccccc1)c1c(O)c2ccccc2oc1=O (stereo not shown) [warfarin] | 0.29

Same assay, conditions: pH 7.4, 4 h, 37 °C; in words (PCA biplot, Figure 11B)

Compound | PAMPA permeability on HTLE
CCCCOc1cc(C(=O)NCCN(CC)CC)c2ccccc2n1 [dibucaine] | high permeability
CC(C)C(=O)Nc1ccc([N+](=O)[O-])c(C(F)(F)F)c1 [flutamide] | high permeability
CC(=O)CC(c1ccccc1)c1c(O)c2ccccc2oc1=O (stereo not shown) [warfarin] | low

Assay: in vitro
Conditions: bovine, PAMPA, pH 7.4

Compound | Papp at 4 h, 100 μM [×10⁻⁶ cm/s]
CC(=O)CC(c1ccccc1)c1c(O)c2ccccc2oc1=O (stereo not shown) [warfarin] | 0.891

Assay: PAMPA permeability, liver polar lipid extract (LPLE) membrane
Conditions: bovine, PAMPA, pH 7.4, Mean Pe, n=3, * = not detected at acceptor side, value calculated from limit of detection

Compound | Papp at 4 h, 100 μM [×10⁻⁶ cm/s]
CCCCOc1cc(C(=O)NCCN(CC)CC)c2ccccc2n1 [dibucaine] | 39.9
CC(C)C(=O)Nc1ccc([N+](=O)[O-])c(C(F)(F)F)c1 [flutamide] | 29.4
O=C1NC(=O)C(c2ccccc2)(c2ccccc2)N1 [phenytoin] | 34.6
Cc1c(OCC(F)(F)F)ccnc1C[S+]([O-])c1nc2ccccc2[nH]1 (stereo not shown) [lansoprazole] | 24.4
COc1ccc2c(c1)N(C[C@H](C)CN(C)C)c1ccccc1S2 [levomepromazine] | 28.5
CC(C)Cc1ccc(C(C)C(=O)O)cc1 (stereo not shown) [ibuprofen] | 25.1
CC(=O)CC(c1ccccc1)c1c(O)c2ccccc2oc1=O (stereo not shown) [warfarin] | 7.48

Same assay, conditions: bovine, PAMPA, pH 7.4, Mean logPe, n=3

Compound | Papp at 4 h, 100 μM [×10⁻⁶ cm/s]
COc1ccc2c(c1)N(C[C@H](C)CN(C)C)c1ccccc1S2 [levomepromazine] | 23.4

Same assay, conditions: n=3

Compound | Mean logPe
CCCCOc1cc(C(=O)NCCN(CC)CC)c2ccccc2n1 [dibucaine] | -4.40
CC(C)C(=O)Nc1ccc([N+](=O)[O-])c(C(F)(F)F)c1 [flutamide] | -4.54
O=C1NC(=O)C(c2ccccc2)(c2ccccc2)N1 [phenytoin] | -4.46
Cc1c(OCC(F)(F)F)ccnc1C[S+]([O-])c1nc2ccccc2[nH]1 (stereo not shown) [lansoprazole] | -4.62
CC(C)Cc1ccc(C(C)C(=O)O)cc1 (stereo not shown) [ibuprofen] | -4.61
O=C1CN=C(c2ccccc2)c2cc([N+](=O)[O-])ccc2N1 [nitrazepam] | -4.60
CC(=O)CC(c1ccccc1)c1c(O)c2ccccc2oc1=O (stereo not shown) [warfarin] | -5.14

Assay: PAMPA permeability, liver total lipid extract (LTLE) membrane
Conditions: Liver total lipid extract membrane, n=3

Compound | Mean logPe
CCCCOc1cc(C(=O)NCCN(CC)CC)c2ccccc2n1 [dibucaine] | -4.56
CC(C)C(=O)Nc1ccc([N+](=O)[O-])c(C(F)(F)F)c1 [flutamide] | -4.32
O=C1NC(=O)C(c2ccccc2)(c2ccccc2)N1 [phenytoin] | -4.35
Cc1c(OCC(F)(F)F)ccnc1C[S+]([O-])c1nc2ccccc2[nH]1 (stereo not shown) [lansoprazole] | -4.21
CC(C)Cc1ccc(C(C)C(=O)O)cc1 (stereo not shown) [ibuprofen] | -4.54
O=C1CN=C(c2ccccc2)c2cc([N+](=O)[O-])ccc2N1 [nitrazepam] | -4.26
CC(=O)CC(c1ccccc1)c1c(O)c2ccccc2oc1=O (stereo not shown) [warfarin] | -4.86

Same assay, conditions: Liver total lipid extract membrane, n=3; * = not detected at acceptor side, value calculated from limit of detection

Compound | Mean Pe
COc1ccc2c(c1)N(C[C@H](C)CN(C)C)c1ccccc1S2 [levomepromazine] | < 3,7* 10-6 cm/s

Same assay, conditions: bovine, PAMPA, pH 7.4

Compound | Papp at 4 h, 100 μM [×10⁻⁶ cm/s]
CCCCOc1cc(C(=O)NCCN(CC)CC)c2ccccc2n1 [dibucaine] | 28.6
CC(C)C(=O)Nc1ccc([N+](=O)[O-])c(C(F)(F)F)c1 [flutamide] | 47.9
O=C1NC(=O)C(c2ccccc2)(c2ccccc2)N1 [phenytoin] | 44.7
Cc1c(OCC(F)(F)F)ccnc1C[S+]([O-])c1nc2ccccc2[nH]1 (stereo not shown) [lansoprazole] | 61.9
COc1ccc2c(c1)N(C[C@H](C)CN(C)C)c1ccccc1S2 [levomepromazine] | < 3.72
CC(C)Cc1ccc(C(C)C(=O)O)cc1 (stereo not shown) [ibuprofen] | 29
CC(=O)CC(c1ccccc1)c1c(O)c2ccccc2oc1=O (stereo not shown) [warfarin] | 13.9
